The record followed here is ChEMBL document CHEMBL5126518, “Quercetin derivatives: Drug design, development, and biological activities, a review” (Eur J Med Chem, 2022).

Molecules are shown by their SMILES. In brackets after ≈: the same amount, converted by molar mass. Bounds are passed on as bounds.

One series deals with MCF7. The experiment in a line: Induction of apoptosis in human MCF7 cells assessed as early apoptotic cells at 50 uM measured after 12 hrs by annexin V-FITC/propidium iodide staining based flow cytometry relative to control. Format: functional. (A flow cytometer gives signals particle by particle.)
Series [1] relates to Pseudomonas aeruginosa. The series can be described thus: Antibacterial activity against carbapenem-resistant Pseudomonas aeruginosa CCARM2321 assessed as fold reduction in ceftazidime MIC incubated for 20 hrs by checkerboard synergy test. Format: functional.
In series [2] the test system is Staphylococcus aureus. The experiment in a line: Antibiofilm activity against vancomycin-intermediate Staphylococcus aureus ATCC 700699 assessed as inhibition of biofilm formation incubated for 24 hrs by crystal violet staining based assay. Format: functional, organism-based. As to conditions: ATCC 700699, 24 h.
The test system of series [3] is Pseudomonas aeruginosa. The series can be described thus: In vivo antibacterial activity against carbapenem-susceptible Pseudomonas aeruginosa ATCC 27853 infected in CD-1 mouse assessed as mouse survival at 40 mg/kg per day administered for 7 days in presence of ceftazidime. Format: functional. As to conditions: time 7 day.
The subject of another series is Acinetobacter baumannii. The series can be described thus: Antibacterial activity against carbapenem-resistant Acinetobacter baumannii AMC-AB 643 assessed as fold reduction in ceftazidime MIC incubated for 20 hrs by checkerboard synergy test. Format: functional.
Series [4] concerns Staphylococcus aureus. The series can be described thus: Antibiofilm activity against methicillin resistant Staphylococcus aureus AMCSA 5016 assessed as inhibition of biofilm formation incubated for 24 hrs by crystal violet staining based assay. As to conditions: AMCSA 5016, 24 h. Format: functional, organism-based.
Series [5] has as its system Staphylococcus aureus. The series can be described thus: Antibiofilm activity against methicillin sensitive Staphylococcus aureus ATCC 29213 assessed as inhibition of biofilm formation incubated for 24 hrs by crystal violet staining based assay. In kind it is functional, organism-based. As to conditions: ATCC 29213, 24 h.
A short description of series [6]: Antioxidant activity assessed as DPPH radical scavenging activity up to 2 mM relative to control. Format: functional. (Loss of DPPH colour is used to gauge radical scavenging.)
Series [7] concerns Staphylococcus aureus. The series can be described thus: Antibiofilm activity against heteroresistant vancomycin-intermediate Staphylococcus aureus ATCC 700698 assessed as inhibition of biofilm formation incubated for 24 hrs by crystal violet staining based assay. Format: functional, organism-based. The following applies: ATCC 700698, 24 h.
Series [8] can be described thus: Selectivity index, ratio of CTD50 for cytotoxicity against MDCK cells to EC50 for antiviral activity against Influenza A H1N1/pdm09 infected in MDCK cells. Format: toxicity, cell-based. As to conditions: dog, read-out: Selectivity Index.
Series [9] relates to Influenza A virus. The series can be described thus: Antiviral activity against Influenza A virus H1N1/pdm09 infected in MDCK cells pretreated with compound for 1 hr followed virus infection measured after 48 hrs. In kind it is functional, organism-based.
A short description of series [10]: Cytotoxicity against MDCK cells assessed as reduction in cell viability incubated for 48 hrs by MTT assay. In kind it is toxicity, cell-based, Canis lupus familiaris. The following applies: dog, read-out: CTD50.
Series [11] relates to Candida albicans. The experiment in a line: Antifungal activity against Candida albicans 527/14 assessed as fungal growth inhibition measured after 24 hrs by microdilution assay. In kind it is functional.
Series [12] deals with Candida albicans. The series can be described thus: Antibiofilm activity against Candida albicans 475/15 assessed as inhibition of biofilm formation measured after 24 hrs by crystal violet staining based analysis relative to control. Format: functional. On the set-up: scale not given: the % may be the effect or the level left.
For series [13], the system named is Candida albicans. The experiment in a line: Antifungal activity against Candida albicans 13/15 assessed as fungal growth inhibition measured after 24 hrs by microdilution assay. In kind it is functional.
Series [14] deals with Candida albicans. The experiment in a line: Antifungal activity against Candida albicans 10/15 assessed as fungal growth inhibition measured after 24 hrs by microdilution assay. In kind it is functional.
Series [15] concerns Candida albicans. The experiment in a line: Antifungal activity against Candida albicans 475/15 assessed as fungal growth inhibition measured after 24 hrs by microdilution assay. Format: functional. A general note: In broth dilution the organism is exposed to a series of concentrations in liquid medium.
Series [16] is described as follows: Cytotoxicity against MDCK cells assessed as reduction in cell viability incubated for 48 hrs by SRB assay. Format: toxicity, cell-based, Canis lupus familiaris. As to conditions: dog.
Series [17] deals with Influenza A virus. The experiment in a line: Antiviral activity against influenza A/PR/8/34 H1N1 virus infected in MDCK cells assessed as cell growth inhibition measured after 48 hrs by SRB assay. Format: functional, organism-based. As to conditions: A/PR/8/34 H1N1, MDCK.

The term IC50 denotes the concentration needed to halve the response being measured. As for `O=c1c(O)c(-c2ccc(F)c(F)c2)oc2cc(O)cc(O)c12`, the Activity in the series with MCF7 was 47.7%; in the series on Pseudomonas aeruginosa [3], 20%; in series [6], 50%. The “fold change (FC)” value in the series with Pseudomonas aeruginosa [1] was 8; with Acinetobacter baumannii it was 4. The IC50 in the series with Staphylococcus aureus [2], in the series on Staphylococcus aureus [4], with Staphylococcus aureus [5] and in the series with Staphylococcus aureus [7] was 1.8 µg/mL (≈ 5.88 µM) in each case.
The term EC50 denotes the concentration at which the effect is half-maximal. Regarding `CCOC1(Br)C(=O)c2c(O)c(Br)c(O)c(Br)c2OC1(Br)c1cc(O)c(O)c(Br)c1` (centres undefined), in series [8], the selectivity ratio came to 16. For the same molecule, the EC50 in the series on Influenza A virus [9] stood at 6 µg/mL (≈ 8.26 µM). Further, in series [10], the CC50 at 48 h was 97.7 µg/mL (≈ 134 µM).
What is called MIC is the lowest concentration found to suppress growth. On to `O=c1c(O[C@@H]2O[C@H](CO)[C@@H](O)[C@H](O)[C@H]2O)c(-c2ccc(O)c(O)c2)oc2cc(O)cc(O)c12` [ISOQUERCETIN], for which the MIC in the series with Candida albicans [11], with Candida albicans [13], with Candida albicans [14] and in the series with Candida albicans [15] was 37.5 µg/mL (≈ 80.8 µM) in each case. Moreover, the Activity in the series on Candida albicans [12] was 76%.
Regarding `O=c1c(O)c(-c2ccc(O)c(O)c2)oc2cc(O[C@H]3O[C@H](CO)[C@@H](O)[C@H](O)[C@H]3O)cc(O)c12`, the CC50 at 48 h in series [16] was over 100 µg/mL. The IC50 in the series with Influenza A virus [17] amounted to 2.1 µg/mL (≈ 4.52 µM).
